This is an account of results in patent publication US20220401436A1, “METHODS FOR THE TREATMENT OF CANCERS THAT HAVE ACQUIRED RESISTANCE TO KINASE INHIBITORS” (INSERM (INSTITUTE NATIONAL DE LA SANTÉ ET DE LA RECHERCHE …, priority 2019, published 2022).

Data set [1] has as its system EGFR-mutated lung cell lines. Briefly: Drug-tolerant cell (DTC) state in a panel of EGFR-mutated lung cell lines. Format: cell-based. The text has this:
Actin polymerization is a tightly regulated process orchestrated by GTPases. Given our knowledge on the role of RHOB in resistance to targeted therapy, we assessed whether this GTPase could be responsible for the production of stress fibers in response to EGFR-TKI.

A further data set deals with PC9. Briefly: GFP-transduced PC9 cells treated in vitro, response and relapse followed by fluorescence detection. The data set is classed as cell-based. As to conditions: for emergence of resistant proliferative clones: inhibitor at 1 μM.
The test system of the next data set is HCC827. The experiment in a line: GFP-transduced HCC827 cells treated in vitro, response and relapse followed by fluorescence detection. The data set is classed as cell-based. As to conditions: for emergence of resistant proliferative clones: inhibitor at 1 μM.
For another data set, the system named is HCC4006. The experiment in a line: GFP-transduced HCC4006 cells treated in vitro, response and relapse followed by fluorescence detection. As to conditions: for emergence of resistant proliferative clones: inhibitor at 1 μM. The data set is classed as cell-based.
The test system of a further data set is TKI-sensitive models. The experiment in a line: Relapse in several TKI-sensitive models followed by fluorescence detection (FIG. 1). Format: cell-based. To be noted: in combination with TKI; FIG. 1 title. As for the experimental part: (§1) FIG. 1. […] (G-H). GFP-transduced H3122 (ALK-translocated NSCLC cell line) or A375 (BRAF-mutated melanoma cell line) were treated by Tipifarnib 0.1 μM in combination with Alectinib (2 μM) or Vemurafenib (5 μM), respectively, and response as well as relapse was followed by fluorescence detection.

Data set [2] concerns H3122 (ALK-translocated NSCLC cell line). Briefly: GFP-transduced H3122 cells treated in vitro, response and relapse followed by fluorescence detection. The data set is classed as cell-based. As for the experimental part: as §1
Data set [3] concerns A375 (BRAF-mutated melanoma cell line). Briefly: GFP-transduced A375 cells treated in vitro, response and relapse followed by fluorescence detection. The data set is classed as cell-based. As for the experimental part:
as §1

The conditions of data set [4]: combination of Erlotinib and Tipifarnib; phase I clinical trial; cited from earlier work.
Another data set concerns HCC2935. The data set is classed as cell-based.
The next data set deals with H3255. Format: cell-based.
[5] abbreviates: combination with erlotinib 1 μM.
Setting [6] is: Tipifarnib alone at 0.1 μM, data not shown.
Setting [7] is: combination with erlotinib 1 μM, Tipifarnib at 0.1 μM.
[8] abbreviates: combination with erlotinib 1 μM, Tipifarnib at 1 μM.
The mark [9] stands for this setting: Tipifarnib alone at 1 μM vs 0.1 μM, data not shown.
The mark [10] stands for this setting: erlotinib alone, data not shown.

On to `C=CC(=O)Nc1cc(Nc2nccc(-c3cn(C)c4ccccc34)n2)c(OC)cc1N(C)CCN(C)C` [osimertinib], for which, in [1], the “generation of DTC” value is reported as “able to generate DTC”.
As for `COC(=O)[C@H](CC(C)C)NC(=O)c1ccc(NC[C@@H](N)CS)cc1-c1cccc2ccccc12` [GGTI 298], the “emergence of resistant proliferative clones” value with PC9 (setting [5]), with HCC827 (setting [5]) and with HCC4006 (setting [5]) was “didn't prevent the emergence of resistant proliferative clones” in each case. Moreover, the relapse result with TKI-sensitive models is “not GGTi prevent relapse”.
As to `Cn1cncc1[C@@](N)(c1ccc(Cl)cc1)c1ccc2c(c1)c(-c1cccc(Cl)c1)cc(=O)n2C` [Tipifarnib, (R)-6-[amino(4-chlorophenyl)(1-methyl-1H-imidazol-5-yl)methyl]-4-(3-chlorophenyl)-1-methyl-2(1H)-quinolinone], the “effect on cells growth” value is on record as “little-to-non effect” in the data set on PC9 (setting [6]); “little-to-non effect” in the data set on HCC827 (setting [6]); “some cytostatic effect” with HCC4006 (setting [6]); “some cytostatic effect” in [2] (Tipifarnib alone at 0.1 μM); “some cytostatic effect” in [3] (Tipifarnib alone at 0.1 μM). Further, the “elimination of drug tolerant cells” value with PC9 (setting [7]), in the data set on PC9 (setting [8]), in the data set on HCC827 (setting [7]), in the data set with HCC827 (setting [8]), in the data set on HCC4006 (setting [7]) and in the data set with HCC4006 (setting [8]) was “efficiently eliminated all drug tolerant cells” in each case. The “emergence of resistant clones” value with PC9 (setting [7]), in the data set on HCC827 (setting [7]) and in the data set on HCC4006 (setting [7]) was “fully prevented the emergence of resistant clones” in each case. Moreover, the “emergence of resistant proliferative clones” value in the data set on PC9 (setting [5]), in the data set with HCC827 (setting [5]) and with HCC4006 (setting [5]) was “fully prevented the emergence of resistant clones” in each case. Besides, the cytostatic effect entry (in the data set on HCC4006 (setting [9]); in [2] (setting [9]); in data set [3] (setting [9])) was “exacerbated” throughout. Also, the “cell death / remaining DTC after several days of treatment” value in data set [1] (combination of Tipifarnib and Erlotinib (1 μM), cell lines not named, data not shown) is given as “complete cell death”. Moreover, the relapse entry in the data set with TKI-sensitive models is reported as “prevent relapse”. Also, the tolerability in patients entry in [4] was “well tolerated”.
With `C#Cc1cccc(Nc2ncnc3cc(OCCOC)c(OCCOC)cc23)c1` [erlotinib], the “proliferative resistant clones after erlotinib treatment” value in the data set on PC9 (setting [10]) and with HCC4006 (setting [10]) was “able to generate proliferative resistant clones” in each case. Further, the “resistant clones after erlotinib treatment” value in the data set on HCC2935 and with H3255 was “never observed resistant clones” each time. Moreover, the “generation of DTC” value in data set [1] is “able to generate DTC”.
